Measurements published in patent US10821091B2, “Retinoid compositions and methods of increasing immune cell-mediated killing of IDH mutant cancer cells” (UNIVERSITY OF PITTSBURGH—OF THE COMMONWEALTH SYSTEM OF …, priority 2017, dated 2020).

Tests used:
[1] = mouse, in vivo
Procedure: Mice. 6-8 week old Balb/c nude mice (CAnN.Cg-Foxn1nu/Crl) were purchased from Charles River Laboratories. Mice were injected with 10^6 IDH WT or mutant primary glioma cells sub-cutaneously in the right flank. When the tumors were about 25 mm^2, ATRA treatment was started. 10 mg/Kg ATRA was administered to mice intra-peritoneally (i.p.) every alternate day until termination of the experiment. DMSO-treated mice were used as controls. The mice were monitored for signs of drug toxicity such as weight-loss, lethargy, skin lesions and diarrhea. The tumors were measured every 3 days, and the mice were sacrificed when the tumors were about 400 mm^2. For NK depletion experiments, 6-week old B6 nude mice (B6.Cg-Foxn1nu/J) were purchased from The Jackson Laboratory. NK depletion was performed by injecting mice with 200 μg of anti-NK1.1 antibody (Biolegend) i.p. on the day ATRA treatment was started. Mice injected with 200 μg of an isotype antibody were used as controls. Mice were bled and evaluated for circulating NKs by flow cytometry.
Retinoic acid has been used as a chemotherapeutic agent in a wide variety of cancers, in pre-clinical as well as clinical applications. 13-cis-RA is the most common form of RA used in clinics, and is effective in a variety of neoplasms. Therefore, the efficacy of 13-cis RA was compared with ATRA and Bexarotene (a synthetic retinoic acid analogue) in IDH mutant gliomas.

[2] = system: IDH mutant cells from primary gliomas; test: Gene microarray (Clariom S) and pathway analysis; type: cell-based, human
Procedure: To evaluate overall gene expression changes and to decipher pathway activation in IDH mutants after ATRA treatment, a gene microarray was performed. IDH wt and mutant cells from primary gliomas were treated with 1 μM ATRA for 48 hours and RNA was extracted from the cells. Microarray analysis was performed using Clariom S microarray chips.

[3] = system: ATRA-treated IDH mutant cells; test: Transwell chemotaxis assay of immune cell subsets; type: cell-based, human
Procedure: ATRA increases chemotaxis towards IDH mutant cells in a CCL2-dependent manner. […] To confirm these findings, chemotaxis assays were performed in vitro. ATRA-treated IDH mutant or WT cells were plated in the bottom well of a transwell. Different immune cell subsets (as indicated) were placed in the top chamber at a 10:1 E:T ratio. After 48 hours, cells from the bottom chamber were harvested and analyzed by flow cytometry. […] To evaluate the mechanisms of changes in chemotaxis induced by ATRA, a chemokine array was performed. Supernatants from ATRA- (or DMSO)-treated WT and IDH mutant cultures were used to assess changes in chemokine expression using a chemokine array kit (R&D systems). Results were interpreted visually as well as quantified using an imaging software (ImageJ). […] To substantiate the role of CCL2 in NK and T cell chemotaxis, transwell assays were repeated as described earlier, in the presence of CCL2-blocking antibody (R&D systems).

[4] = system: IDH mutant chondrosarcoma cells (HT-1080 and SW 1353); test: NK killing of chondrosarcoma cells; type: cell-based; details: different doses of ATRA, 48 hours; at least two chondrosarcoma cell lines
Procedure: IDH WT chondrosarcoma cells and IDH mutant chondrosarcoma cells were treated with different doses of ATRA or DMSO for 48 hours and were evaluated for killing by NK cells (FIG. 11F). NK cytotoxicity on IDH WT chondrosarcoma cells and IDH mutant chondrosarcoma cells was evaluated.

[5] = system: NKG2D ligands in IDH mutant cells; test: qPCR of NKG2D ligand expression in ATRA-treated glioma cells; type: cell-based, human; details: 1 μM ATRA 48 hours, vs DMSO-treated cells
Procedure: All-trans Retinoic acid (ATRA) treatment of astrocytes and primary glioma cells. ATRA was purchased from Sigma Aldrich® and reconstituted in DMSO. ATRA was added at a 1 μM final concentration to cell culture medium for 48 hours. After treatment, the cells either lysed in Trizol™ for qPCR analysis, or were used in NK cytotoxicity assays.
Quantitative Real time RT-PCR. 5×10^5 IDH mutant and WT astrocytes, as well as patient glioma cells were lyzed in Trizol and RNA was extracted from the cells using the Chloroform extraction method. cDNA was transcribed from the RNA using iScript cDNA synthesis kit (BioRad). Real-time PCR was performed on an CFX96 Touch™ Real-Time PCR Detection System (Bio-Rad) equipped with a 96-well reaction plate. Briefly, 2 μL cDNA was added to 5 μL of the 2×SYBR Green PCR mastermix (Thermo Scientific), 800 nM of each primer, and water was added to 10 μL. The thermal denaturation protocol was run at the end of the PCR to determine the number of products that were present in the reaction. Reactions were typically run in triplicates. The cycle number at which the reaction crossed an arbitrarily-placed threshold (CT) was determined for each gene and the relative amount of each gene to 18 S rRNA was described using the equation 2^−ΔCT where ΔCT=(CTtargetRNA−CT18S rRNA).
ATRA induced increased cytotoxic killing of IDH mutant cells in an NKG2D-ligand dependent manner. The ability of ATRA to sensitize IDH mutant cells to killing by NK cells was evaluated. For this purpose, IDH mutant and WT cells were treated with 1 μM ATRA for 48 hours and assessed for killing by NK-92 cells (ATCC) at a 10:1 E:T ratio. […] Also, as observed in vivo, increased NK-92 killing in IDH mutant cells was dependent upon NKG2D engagement. […] ATRA-treated cells were also evaluated for expression of NKG2D ligands.

[6] = system: ATRA-treated IDH mutant tumors; test: Ex vivo NK killing of resected tumors; type: cell-based, mice; details: vs DMSO-treated control tumors
Procedure: ATRA promotes tumor stasis in IDH mutant tumor-bearing mice. To determine the value of ATRA as a therapeutic modality, its anti-tumor efficacy in vivo was evaluated. Athymic nude mice were implanted with 10^6 IDH mutant or WT primary glioma cells in the flank. 21 days after tumor inoculation (when tumors were about 25 mm^2), 10 mg/kg ATRA was administered every other day for 21 days. Tumors were measured every 3 days. […] Resected tumors from ATRA or DMSO-treated mice were digested to obtain single cell suspensions and assessed for killing by human and mouse NK cells ex vivo.

[7] = towards ATRA-treated IDH mutant cells vs DMSO-treated controls, 48 hours
[8] = towards ATRA-treated IDH mutant cells, 48 hours

## CC1=C(/C=C/C(C)=C/C=C/C(C)=C/C(=O)O)C(C)(C)CCC1 [ATRA, all-trans retinoic acid]
[1]
  toxicity in treated mice (weight loss and wasting): not observed in ATRA-treated mice
[2]; 1 μM ATRA 48 hours (data not shown)
  gene expression of inflammatory chemokines CXCL1, CXCL9 and CXCL10: upregulated the gene expression of multiple inflammatory chemokines
[2]; IDH mutant cells, 1 μM ATRA 48 hours
  pathway analysis of upregulated genes: immune cell chemotaxis was one of the most upregulated pathways
[3]; ATRA-treated IDH mutant cells
  NK and T cell migration in the presence of CCL2-blocking antibody: reversed the increased NK (FIG. 6M) and T cell (FIG. 6N) migration
  migration of Tregs in the presence of CCL2-blocking antibody: did not impact the migration of Tregs
[3]; [7]
  migration of CD8+ T cells: increased migration
  migration of M1 macrophages: increased migration
  migration of NK cells: increased migration
[3]; [8]
  migration of M2 macrophages: decreased migration
  migration of Monocytes: decreased migration
  migration of Tregs: decreased migration
[4]
  NK-mediated cell killing: increased NK-mediated cell killing of IDH mutant chondrosarcoma cells
[5]
  expression of NKG2D ligand MICA: increased expression
  expression of NKG2D ligand MICB: increased expression
  expression of NKG2D ligand ULBP1: increased expression
  expression of NKG2D ligand ULBP3: increased expression
[6]
  ex vivo killing by human natural killer cells: more susceptible to killing
  ex vivo killing by mouse natural killer cells: more susceptible to killing
